In ChEMBL document CHEMBL1130015, “Cardioselective antiischemic ATP-sensitive potassium channel (KATP) openers. 5. Identification of 4-(N-aryl)-substituted benzopyran derivatives with high selectivity” (J Med Chem, 1997):

Legend:
Rattus norvegicus [1] = organism: Rattus norvegicus; test: Vasorelaxant potency determined by measurement of IC50 value for relaxation of rat aorta precontracted with methoxamine; assay type: functional
Rattus norvegicus [2] = organism: Rattus norvegicus; test: Percent increase in cardio protective activity at concentration of 10 uM; assay type: functional, Heart
Rattus norvegicus [3] = organism: Rattus norvegicus; test: Ratio of the EC25 value for time to contracture and IC50 value for vasorelaxant potency indicates selectivity in vitro for the ischemic myocardium.; assay type: functional
Rattus norvegicus [4] = organism: Rattus norvegicus; test: Antiischemic potency is determined by EC25 value for increase in time to the onset of contracture in globally ischemic isolated perfused rat hearts.; assay type: functional
[5] = Maximum plasma concentration following oral administration of 30 umol/kg; assay type: ADME, organism-based; parameters: dose 30 umol/kg, route oral
[6] = Apparent terminal elimination half life in rats; assay type: ADME, organism-based; conditions: rat, in vivo
[7] = Oral bioavailability in rats was determined in vivo; assay type: ADME, organism-based; conditions: rat, read-out: Bioavailabiility
[8] = Pharmacokinetic parameter Tmax following oral administration of 30 umol/kg; assay type: ADME, organism-based; conditions: in vivo

SMILES: CCOC(=O)C(=O)N(c1ccc(F)cc1)[C@H]1c2cc(C#N)ccc2OC(C)(C)[C@@H]1O
- IC50 (Rattus norvegicus [1]): 43 µM
- Increase (Rattus norvegicus [2]): 0%

SMILES: Cc1noc(CN(c2ccccc2)[C@H]2c3cc(C#N)ccc3OC(C)(C)[C@@H]2O)n1
- IC50 (Rattus norvegicus [1]): > 30 µM
- Ratio (Rattus norvegicus [3]): <0.33
- EC25 (Rattus norvegicus [4]): 10 µM

SMILES: CCOC(=O)CN(c1ccc(F)cc1)[C@H]1c2cc(C#N)ccc2OC(C)(C)[C@@H]1O
- IC50 (Rattus norvegicus [1]): > 30 µM
- Ratio (Rattus norvegicus [3]): <0.017
- EC25 (Rattus norvegicus [4]): 3.8 µM

SMILES: CC1(C)Oc2ccc(C#N)cc2[C@H](N(CC(=O)O)c2ccccc2)[C@H]1O
- IC50 (Rattus norvegicus [1]): > 100 µM
- Increase (Rattus norvegicus [2]): 0%

SMILES: CC1(C)Oc2ccc(C#N)cc2[C@H](N(Cc2ncc[nH]2)c2ccc(Cl)cc2)[C@H]1O [BMS-191095]
- Cmax [5]: 1300 nM
- IC50 (Rattus norvegicus [1]): > 30 µM
- Ratio (Rattus norvegicus [3]): <0.05
- half-life [6]: 3 h
- bioavailability [7]: 47%
- Tmax [8]: 1.9 h
- EC25 (Rattus norvegicus [4]): 1.4 µM

SMILES: CC1(C)Oc2ccc(C#N)cc2[C@H](Nc2ccccc2)[C@H]1O
- Ratio (Rattus norvegicus [3]): 3.9
- EC25 (Rattus norvegicus [4]): 3.9 µM

SMILES: CC1(C)Oc2ccc(C#N)cc2[C@H](N(Cc2ncc[nH]2)c2ccccc2)[C@H]1O
- IC50 (Rattus norvegicus [1]): > 30 µM
- Ratio (Rattus norvegicus [3]): <0.14
- EC25 (Rattus norvegicus [4]): 4.3 µM

SMILES: CCOC(=O)CN(c1nc(C)cs1)[C@H]1c2cc(C#N)ccc2OC(C)(C)[C@@H]1O
- IC50 (Rattus norvegicus [1]): 84 µM
- Ratio (Rattus norvegicus [3]): <0.09
- EC25 (Rattus norvegicus [4]): 7.8 µM

SMILES: CCOC(=O)CN(c1ccccc1)[C@H]1c2cc(C#N)ccc2OC(C)(C)[C@@H]1O
- IC50 (Rattus norvegicus [1]): > 30 µM
- Ratio (Rattus norvegicus [3]): <0.07
- EC25 (Rattus norvegicus [4]): 2.2 µM
- Increase (Rattus norvegicus [2]): 38%

SMILES: CC1(C)Oc2ccc(C#N)cc2[C@H](N(CCS(C)(=O)=O)c2ccccc2)[C@H]1O
- IC50 (Rattus norvegicus [1]): 27 µM
- Increase (Rattus norvegicus [2]): 0%

SMILES: CC1(C)Oc2ccc(C#N)cc2[C@@H](N(Cc2ncc[nH]2)c2ccc(Cl)cc2)[C@@H]1O
- IC50 (Rattus norvegicus [1]): > 30 µM
- Increase (Rattus norvegicus [2]): 14%

SMILES: CCCCOC(=O)CN(c1ccccc1)[C@H]1c2cc(C#N)ccc2OC(C)(C)[C@@H]1O
- IC50 (Rattus norvegicus [1]): 27 µM
- Increase (Rattus norvegicus [2]): 8%

SMILES: CC1(C)Oc2ccc(C#N)cc2[C@@H](/N=C(\NC#N)Nc2ccc(Cl)cc2)[C@@H]1O
- Ratio (Rattus norvegicus [3]): 1.4
- EC25 (Rattus norvegicus [4]): 2.5 µM

SMILES: CCOC(=O)CCN(c1ccccc1)[C@H]1c2cc(C#N)ccc2OC(C)(C)[C@@H]1O
- IC50 (Rattus norvegicus [1]): 54 µM
- Increase (Rattus norvegicus [2]): 26%

SMILES: Cc1cc(CN(c2ccccc2)[C@H]2c3cc(C#N)ccc3OC(C)(C)[C@@H]2O)on1
- IC50 (Rattus norvegicus [1]): > 30 µM
- Increase (Rattus norvegicus [2]): 11%

SMILES: CCOC(=O)CN(c1ccccc1)[C@@H]1c2cc(C#N)ccc2OC(C)(C)[C@H]1O [listing 1 of 2 here]
- IC50 (Rattus norvegicus [1]): > 30 µM
- Ratio (Rattus norvegicus [3]): <0.17
- EC25 (Rattus norvegicus [4]): 4.7 µM

SMILES: CC1(C)Oc2ccc(C#N)cc2[C@H](N(Cc2ncco2)c2ccccc2)[C@H]1O
- IC50 (Rattus norvegicus [1]): > 30 µM
- Ratio (Rattus norvegicus [3]): <0.18
- EC25 (Rattus norvegicus [4]): 5.3 µM

SMILES: CC1(C)Oc2ccc(C#N)cc2[C@@H](N2CCCC2=O)[C@@H]1O [CROMAKALIM]
- Ratio (Rattus norvegicus [3]): 278
- EC25 (Rattus norvegicus [4]): 8.9 µM

SMILES: CCOC(=O)CCCN(c1ccccc1)[C@H]1c2cc(C#N)ccc2OC(C)(C)[C@@H]1O
- IC50 (Rattus norvegicus [1]): > 30 µM
- EC25 (Rattus norvegicus [4]): 5.7 µM

SMILES: CC1(C)Oc2ccc(C#N)cc2[C@H](N(Cc2ccco2)c2ccccc2)[C@H]1O
- IC50 (Rattus norvegicus [1]): 12 µM
- Ratio (Rattus norvegicus [3]): 0.27
- EC25 (Rattus norvegicus [4]): 3.2 µM

SMILES: CCOC(=O)CN(c1nc2ccccc2o1)[C@H]1c2cc(C#N)ccc2OC(C)(C)[C@@H]1O
- IC50 (Rattus norvegicus [1]): > 30 µM
- Increase (Rattus norvegicus [2]): 0%

SMILES: CCOC(=O)CN(c1ccccc1)[C@@H]1c2cc(C#N)ccc2OC(C)(C)[C@H]1O [listing 2 of 2 here]
- IC50 (Rattus norvegicus [1]): > 30 µM
- Increase (Rattus norvegicus [2]): 5%

SMILES: CC(=O)NCCN(c1ccccc1)[C@H]1c2cc(C#N)ccc2OC(C)(C)[C@@H]1O
- IC50 (Rattus norvegicus [1]): > 30 µM
- Increase (Rattus norvegicus [2]): 5%

SMILES: COC(=O)c1cc2ccccc2n1[C@@H]1c2cc(C#N)ccc2OC(C)(C)[C@H]1O
- Ratio (Rattus norvegicus [3]): 0.25
- EC25 (Rattus norvegicus [4]): 8.1 µM

SMILES: CCOC(=O)CN(c1ccc(Cl)cc1)[C@H]1c2cc(C#N)ccc2OC(C)(C)[C@@H]1O
- IC50 (Rattus norvegicus [1]): > 30 µM
- Ratio (Rattus norvegicus [3]): <0.22
- EC25 (Rattus norvegicus [4]): 6.5 µM

SMILES: CCNC(=O)CN(c1ccccc1)[C@H]1c2cc(C#N)ccc2OC(C)(C)[C@@H]1O
- IC50 (Rattus norvegicus [1]): > 30 µM
- Increase (Rattus norvegicus [2]): 21%

SMILES: CCOP(=O)(CN(c1ccc(F)cc1)[C@H]1c2cc(C#N)ccc2OC(C)(C)[C@@H]1O)OCC
- IC50 (Rattus norvegicus [1]): 47 µM
- Ratio (Rattus norvegicus [3]): 0.104
- EC25 (Rattus norvegicus [4]): 4.9 µM

SMILES: CC1(C)Oc2ccc(C#N)cc2[C@H](N(CC#N)c2ccccc2)[C@H]1O
- IC50 (Rattus norvegicus [1]): 59 µM
- Increase (Rattus norvegicus [2]): 8%

SMILES: COCCN(c1ccccc1)[C@H]1c2cc(C#N)ccc2OC(C)(C)[C@@H]1O
- IC50 (Rattus norvegicus [1]): > 30 µM
- Increase (Rattus norvegicus [2]): 15%

SMILES: CC1(C)Oc2ccc(C#N)cc2[C@H](N(Cc2ncc[nH]2)c2ccc(F)cc2)[C@H]1O
- IC50 (Rattus norvegicus [1]): > 30 µM
- Ratio (Rattus norvegicus [3]): 0.11
- EC25 (Rattus norvegicus [4]): 3.3 µM

SMILES: CCOC(=O)NN(c1ccccc1)[C@H]1c2cc(C#N)ccc2OC(C)(C)[C@@H]1O
- IC50 (Rattus norvegicus [1]): 2.2 µM
- Ratio (Rattus norvegicus [3]): 1.95
- EC25 (Rattus norvegicus [4]): 4.3 µM
